Experimental data as given in patent EP0931079B1, “SUBSTITUTED BENZOCYCLOHEPTAPYRIDINE DERIVATIVES USEFUL FOR INHIBITION OF FARNESYL PROTEIN TRANSFERASE” (SCHERING CORPORATION, priority 1996, dated 1998).

Tests used:
[1] = target: T1, farnesyl protein transferase (Homo sapiens, UniProt P49354+P49356); assay: FPT IC50 (K-ras), inhibition of farnesyl protein transferase, in vitro enzyme assay; format: biochemical; details: range stated for the listed compounds as a group
Procedure: (§1) FPT IC50 (inhibition of farnesyl protein transferase, in vitro enzyme assay) and COS Cell IC50 (Cell-Based Assay) were determined following the assay procedures described in WO 95/10516, published April 20, 1995. GGPT IC50 (inhibition of geranylgeranyl protein transferase, in vitro enzyme assay), Cell Mat Assay, and anti-tumor activity (in vivo anti-tumor studies) could be determined by the assay procedures described in WO 95/10516. The disclosure of WO 95/10516 is incorporated herein by reference thereto.

Human tumor cells = assay: Soft Agar Assay (anchorage-independent growth, colony outgrowth); format: cell-based; details: colonies after 10-16 days at 37°C, range stated for the listed compounds as a group, read-out: Soft Agar FPT IC50
Procedure: Anchorage-independent growth is a characteristic of tumorigenic cell lines. Human tumor cells are suspended in growth medium containing 0.3% agarose and an indicated concentration of a famesyl transferase inhibitor. The solution is overlayed onto growth medium solidified with 0.6% agarose containing the same concentration of farnesyl transferase inhibitor as the top layer. After the top layer is solidified, plates are incubated for 10-16 days at 37°C under 5% CO2 to allow colony outgrowth. After incubation, the colonies are stained by overlaying the agar with a solution of MTT (3-[4,5-dimethyl-thiazol-2-yl]-2,5-diphenyltetrazolium bromide, Thiazolyl blue) (1 mg/mL in PBS). Colonies can be counted and the IC50's can be determined.

COS Cell = COS Cell IC50 (Cell-Based Assay); details: range stated for the listed compounds as a group
Procedure: as §1

[2] = target: T1, farnesyl protein transferase; assay: FPT IC50 (H-ras), inhibition of farnesyl protein transferase, in vitro enzyme assay; format: biochemical; details: range stated for the listed compounds as a group
Procedure: as §1

SMILES | IC50 [1] [nM] | IC50 (Human tumor cells) [nM] | IC50 [2] [nM] | IC50 (COS Cell) [nM]
O=C(CC1CCN(CC(=O)N2CCOCC2)CC1)N1CCC([C@H]2c3ncc(Br)cc3CCc3cc(Cl)cc(Br)c32)CC1 [Compound 7.0] | 8.6 to 51.9 | ≥ 60 | 1.8 to 28 | 6 to 840
O=C(CC1CCN(CC(=O)N2CCc3ccccc32)CC1)N1CCC([C@H]2c3ncc(Br)cc3CCc3cc(Cl)cc(Br)c32)CC1 [Compound 10.0] |  |  | 1.8 to 28 | 6 to 840
O=C(CN1CCC(CC(=O)N2CCC([C@H]3c4ncc(Br)cc4CCc4cc(Cl)cc(Br)c43)CC2)CC1)NCc1ccccc1 [Compound 5.0] | 8.6 to 51.9 |  | 1.8 to 28 | 6 to 840
O=C(CN1CCC(CC(=O)N2CCC([C@H]3c4ncc(Br)cc4CCc4cc(Cl)cc(Br)c43)CC2)CC1)N[C@@H]1O[C@H](CO)[C@H](O)[C@H](O)[C@H]1O [Compound 6.0] | 8.6 to 51.9 | ≥ 60 | 1.8 to 28 | 6 to 840
O=C(CC1CCN(CC(=O)N2CCNCC2)CC1)N1CCC([C@H]2c3ncc(Br)cc3CCc3cc(Cl)cc(Br)c32)CC1 [Compound 9.0] | 8.6 to 51.9 | ≥ 60 | 1.8 to 28 | 6 to 840

The next lines start with results.

IC50 [1] [nM] | IC50 (Human tumor cells) [nM] | IC50 [2] [nM] | SMILES | IC50 (COS Cell) [nM]
8.6 to 51.9 | ≥ 60 | 1.8 to 28 | CCN(CC)C(=O)CN1CCC(CC(=O)N2CCC([C@H]3c4ncc(Br)cc4CCc4cc(Cl)cc(Br)c43)CC2)CC1 [Compound 4.0] | 6 to 840
 |  | 1.8 to 28 | CC(C)(C)OC(=O)CN1CCC(CC(=O)N2CCC([C@H]3c4ncc(Br)cc4CCc4cc(Cl)cc(Br)c43)CC2)CC1 [Compound 11.0] | 
8.6 to 51.9 | ≥ 60 | 1.8 to 28 | CC(C)(C)OC(=O)N1CCN(C(=O)CN2CCC(CC(=O)N3CCC([C@H]4c5ncc(Br)cc5CCc5cc(Cl)cc(Br)c54)CC3)CC2)CC1 [Compound 8.0] | 6 to 840
8.6 to 51.9 | ≥ 60 | 1.8 to 28 | NC(=O)CN1CCC(CC(=O)N2CCC([C@H]3c4ncc(Br)cc4CCc4cc(Cl)cc(Br)c43)CC2)CC1 [Compound 2.0] | 6 to 840
8.6 to 51.9 | ≥ 60 | 1.8 to 28 | CON(C)C(=O)CN1CCC(CC(=O)N2CCC([C@H]3c4ncc(Br)cc4CCc4cc(Cl)cc(Br)c43)CC2)CC1 [Compound 3.0] | 6 to 840
 | ≥ 60 | 1.8 to 28 | O=C(CC1CCN(CC(O)CO)CC1)N1CCC([C@H]2c3ncc(Br)cc3CCc3cc(Cl)cc(Br)c32)CC1 (stereo partly shown) [Compound 20.0] | 6 to 840
